Patent US9862748B2, “Peptide compounds and methods of production and use thereof” (priority 2012, dated 2018)
Like-named read-outs stand apart in the source and are kept apart here. Square brackets hold non-standard residues; d marks the D form. Ends that are not written are not given here. Peptide text beside a SMILES is read from it. AEEA = NCCOCCOCC(=O)O

Assays:
[1] = parameters: species or system male Sprague Dawley rats; settings: rat, in vivo, iv
Method: The purpose of this example was to assess the pharmacokinetics, distribution, and excretion of ^14C-BCC03-5RMP (SEQ ID NO: 23) following a single intravenous administration to male rats. Pharmacokinetic, excretion, and distribution profiles of ^14C-BCC03-5RMP-derived radioactivity were examined in male Sprague Dawley rats following a single intravenous administration of ^14C-BCC03-5RMP (20 mg/kg; 125 μCi/kg). ^14C-BCC03-5RMP was formulated in 5% (v:v) dextrose in water, pH 5.5 and was administered at a dose volume of 5 mL/kg. For assessment of pharmacokinetics of total radioactivity (Group 1), blood was collected at 0.25, 0.5, 1, 2, 4, 8, 24, 48, and 72 hours postdose. For assessment of excretion profiles, urine was collected from 0-8 and 8-24 hours postdose, and at 24-hour intervals through 168 hours postdose. Feces was collected at 24-hour intervals through 168 hours postdose. For assessment of distribution profiles, one animal/time point was sacrificed at 0.25, 1, 4, 24, and 72 hours postdose, and the carcasses were prepared for quantitative whole-body autoradiography (QWBA). Concentrations of radioactivity in whole blood, plasma, urine, feces (after oxidation), cage rinse, cage wash, and carcass were determined by liquid scintillation counting (LSC). Tissue concentrations were calculated by interpolation from each standard curve using MCID™ analysis software (InterFocus Imaging Ltd Corp., UK). Pharmacokinetic parameters for total radioactivity in blood and plasma were calculated using WinNonlin Professional Edition (version 5.2, Pharsight Corporation, St. Louis, Mo.).

[2] = tested on: human corneal epithelial cell (HCEC); experiment: HCEC chemotaxis, modified Boyden chemotaxis chamber assay; type: cell-based; settings: for HCEC migration versus buffer control: 120-146QH 10^−4 to 10^−10 M, 120-146QR 10^−6 and 10^−8 M, HB-EGF 50 ng/ml, rCAP37 250 ng/ml, 3 hours
Method: The effect of buffer control (0.1% BSA in Gey's buffer), heparin binding-epidermal growth factor (HB-EGF, 50 ng/ml), recombinant CAP37 (rCAP37, 250 ng/ml), 120-146QH ([…], 10^−10M, 10^−8M, 10^−4M, and 10^−4M,) and 120-146QR (10^−10M, 10^−8M, 10^−6M, and 10^−4M) on HCEC chemotaxis was determined by the modified Boyden chemotaxis chamber method. HCEC chemotaxis was measured in response to HB-EGF, rCAP37, and peptides 120-146QH (SEQ ID NO: 29) and 120-146QR (SEQ ID NO: 28) after incubation for 3 hours at 37° C. Chemotaxis is expressed as a percent migration. The buffer control (no chemoattractant) is arbitrarily assigned the value of 100% migration. Data are expressed as means±SEM and are calculated from 6 observations for each test point. **P<0.01 by Wilcoxon signed-rank test as compared to controls.
Chemotaxis assays were performed using the modified Boyden chemotaxis chamber assay. Peptide 120-146QH was used at 10^−4M, 10^−6M, 10^−8 M, 10^−10 M, and 10^−12M, and peptide 120-146QR was used at 10^−4M, 10^−6M, 10^−8 M, and 10^−10 M.

[3] = tested on: Pseudomonas aeruginosa ATCC® 27853™; type: cell-based; parameters: Effects of Peptide Compounds on Pseudomonas aeruginosa ATCC ® 27853 ™: unit not given here; settings: Table 6
Method: (§1) In vitro bactericidal activity: The three peptide compounds BCC01-5RMP (SEQ ID NO: 21), BCC02-5RMP (SEQ ID NO: 22), and BCC03-5RMP (SEQ ID NO: 23) were assayed for in vitro bactericidal activity against Pseudomonas aeruginosa, Escherichia coli, Salmonella typhimurium, and Acinetobacter baumannii. The starting inoculum for all experiments was 1×10^6 colony forming units (CFU)/ml. The CFU remaining at the end of 60 to 180 minute incubation was determined, and the data plotted as a log reduction in CFU/ml.
For FIGS. 10-13, in vitro bactericidal assays were performed using a starting inoculum of 1×10^6 CFU/ml of the bacterial suspension. The CFU remaining at the end of the 60-180 minute incubation was determined, and the data was plotted as log reduction in CFU/ml.
In particular, each of the test peptides (CAP37 peptides 120-146WR, 120-146WH, and 95-122 (SEQ ID NOs: 30, 31, and 26, respectively)) was used at 25, 12.5, 6.25, and 3.12 μM. Gentamicin was used at 4 μg/ml. 1×10^6/ml Acinetobacter baumannii ATCC® BAA-747™ or Pseudomonas aeruginosa ATCC® 27853™ (American Type Culture Collection, Manassas, Va.) were incubated with the peptides, negative buffer control (tryptone saline), and positive control gentamicin at pH 5.5 or 7.2. A 60 minute incubation was used for Acinetobacter baumannii ATCC® BAA-747™, while a 180 minute incubation was used for Pseudomonas aeruginosa ATCC® 27853™. 50 μl aliquots were plated out on agar plates and incubated overnight. Colony forming units were counted after overnight incubation and CFU/ml calculated.
For FIG. 14, 1×10^6/ml Pseudomonas aeruginosa ATCC® 27853™ were incubated with each of the test peptides (CAP37 peptides 120-146WR, 120-146WH, 120-146QR, 120-146QH, 120-146QR-5RMP, and 120-146QH-5RMP (SEQ ID NOs: 30, 31, 28, 29, 32, and 33, respectively)) at 150, 75, and 37.5 μg/ml, or negative buffer control (tryptone saline), for 180 minutes at pH 5.5. 50 μl aliquots were plated out on agar plates and incubated overnight. Colony forming units were counted after overnight incubation and CFU/ml calculated.

[4] = tested on: E. coli ATCC® strain 25922™; type: cell-based, Escherichia coli; parameters: unit not given here; settings: Table 6
Method: as §1

[5] = tested on: mouse cornea (corneal epithelial abrasion); experiment: In vivo model of corneal wound healing; settings: treated at 0 and 16 hours; 95-122 10^−5 M; 120-146WH 10^−8 M or 10^−6 M; HB-EGF 250 ng/ml
Method: The in vivo model of wound healing was carried out using a disposable biopsy punch (2 mm, Miltex, York, Pa.) to demarcate the mouse cornea and a 0.5 mm burr using the AlgerBrush II (The Alger Company, Inc., Lago Vista, Tex.) to remove the corneal epithelium.
Mice were anesthetized using ketamine (100 mg/kg; Bionichepharma, LLC., St. Lake Forrest, Ill.) and xylazine ([…]; Rompun; Bayer Corp., Shawnee Mission, Kans.), and the right cornea was wounded as follows. A disposable biopsy punch (2 mm, Miltex, York, Pa.) was used to demarcate the mouse cornea. The corneal epithelium was carefully removed within the 2 mm demarcated area with a 0.5 mm burr using the AlgerBrush II (The Alger Company, Inc., Lago Vista, Tex.). The corneal abrasions were treated at 0 and 16 hours with HB-EGF (250 ng/ml), rCAP37 (250 ng/ml), or vehicle control (0.9% sodium chloride, pH 5.5, Baxter, Deerfield, Ill.). Corneal abrasions were visualized using sterile fluorescein sodium ophthalmic strips USP (FLUORETS®, Chauvin Laboratory, Aubenas, France) dampened with sterile PBS. Images were taken at 0, 16, 24, and 48 hours immediately following fluorescein staining using a surgical microscope equipped with a camera (Carl Zeiss OPMI VISU 140, Carl Zeiss Surgical, Inc., Oberkochen, Germany). The areas of the open wound were quantitated using ImageJ software (US National Institutes of Health), and the results were reported as the percentage of wound closure.
Whole mouse eyes were collected for histology at 0, 6, 16, 24, and 48 hours post wounding and were immediately placed in Prefer fixative (Anatech LTD., Battle Creek, Mich.) for 20 minutes before being transferred to 70% ethanol. Tissues were paraffin-embedded and cut at a thickness of 5 μm, mounted on SUPERFROSTPLUS® slides (Statlab Medical Products, Lewisville, Tex.), and subsequently deparaffinized, rehydrated, and washed in deionized water. Sections were stained with hematoxylin (Leica Microsystems, Buffalo Grove, Ill.) and rinsed twice in deionized water before being washed in Blue Buffer (Leica Microsystems). The sections were finally washed in deionized water and 95% ethanol prior to being counterstained with eosin (Leica Microsystems). Sections were dehydrated in ethanol and cleared in xylene.

HCEC monolayers = experiment: In vitro scratch assay of wound closure; type: cell-based, human; settings: 250 ng/ml
Method: An in vitro scratch assay was used in order to determine the ability of rCAP37 to facilitate corneal wound healing. Human corneal epithelial cells were cultured as described above until they reached a confluent monolayer. Each monolayer was scratched using a 10 μl pipette tip to create two perpendicular lines. Monolayers were treated with heparin binding-epidermal growth factor (HB-EGF, 250 ng/ml; Becton Dickinson), rCAP37 (25-2000 ng/ml), or basal KSFM (Gibco). Wound closure was monitored at 0, 18, 24, and 48 hours utilizing a camera-equipped inverted microscope (TE2000-E; Nikon, Melville, N.Y.). Time-lapse images of in vitro wound closure were obtained using a camera-equipped inverted microscope (TE2000-E; Nikon) from 0-18 hours. HCEC monolayers were treated with HB-EGF, rCAP37, and basal KSFM as described above. The width of each scratch was quantitated using ImageJ software (US National Institutes of Health, Bethesda, Md.). Results are presented as the percentage of wound closure.

## CC[C@H](C)[C@H](NC(=O)[C@H](CC(C)C)NC(=O)[C@H](C)NC(=O)CNC(=O)CNC(=O)[C@H](CS)NC(=O)[C@H](Cc1ccccc1)NC(=O)[C@H](Cc1c[nH]cn1)NC(=O)[C@H](CCCNC(=N)N)NC(=O)CNC(=O)[C@H](CCC(N)=O)NC(=O)[C@H](CC(N)=O)NC(=O)[C@H](CCCNC(=N)N)NC(=O)[C@H](CCCNC(=N)N)NC(=O)[C@H](CCCNC(=N)N)NC(=O)[C@H](CCCNC(=N)N)NC(=O)COCCOCCNC(=O)COCCOCCN)C(=O)N[C@@H](Cc1c[nH]cn1)C(=O)N[C@@H](C)C(=O)N[C@@H](CCCNC(=N)N)C(=O)N[C@@H](Cc1ccccc1)C(=O)N[C@H](C(=O)N[C@@H](CCSC)C(=O)N[C@H](C(=O)N[C@@H](C)C(=O)N[C@@H](C)C(=O)N[C@@H](CO)C(=O)N[C@@H](CO)C(=O)N[C@@H](Cc1ccccc1)C(=O)N[C@@H](CCC(N)=O)C(=O)N[C@@H](CCCNC(=N)N)C(=O)O)[C@@H](C)O)C(C)C [^14C-BCC03-5RMP] (H-[AEEA][AEEA]RRRRNQGRHFCGGALIHARFVMTAASSFQR-OH; N-terminus assumed)
[1]
  administered radioactivity eliminated within the first 48 hours postdose: approximately 55%
[1]; 20 mg/kg
  Clearance of radioactivity in plasma compared to blood: approximately 2 fold
  exposure (AUC0-∞) in blood compared to plasma: approximately 2 fold
  volume of distribution of total radioactivity in blood compared to plasma: approximately 1.6 fold

## GTRCQVAGWGSQHSGGRLSRFPRFVNV [Peptide 120-146QH]
[2]
  HCEC migration versus buffer control: significantly increase migration
[2]; 120-146QH at 10^−6 M and 10^−8 M
  HCEC migration compared with whole CAP37 protein: comparable

## GTRCQVAGWGSQRSGGRLSRFPRFVNV [Peptide 120-146QR]
[2]
  HCEC migration versus buffer control: significantly increase migration

## RRRRNQGRHFCGGALIHARFVMTAASCFQR (5-arginine peptide derivative of CAP37 peptide) [SEQ ID NO: 18 (Linear)]
[3]; Peptide Conc 87.6 μg/ml
  Effects of Peptide Compounds on Pseudomonas aeruginosa ATCC ® 27853 ™: 100.0
[4]; Peptide Conc 262.8 μg/ml
  Effects of Peptide Compounds on Escherichia coli ATCC ® 25922 ™: 100.0

## RRRRNQGRHFCGGALIHARFVMTAASCFQR (not fully specified; cysteine pairing not given here) [SEQ ID NO: 18 (Cyclized)]
[3]; Peptide Conc 3.125 μg/ml
  Effects of Peptide Compounds on Pseudomonas aeruginosa ATCC ® 27853 ™: 100.0
[3]; Peptide Conc 6.25 μg/ml
  Effects of Peptide Compounds on Pseudomonas aeruginosa ATCC ® 27853 ™: 100.0
[3]; Peptide Conc 12.5 μg/ml
  Effects of Peptide Compounds on Pseudomonas aeruginosa ATCC ® 27853 ™: 100.0
[3]; Peptide Conc 25 μg/ml
  Effects of Peptide Compounds on Pseudomonas aeruginosa ATCC ® 27853 ™: 100.0
[3]; Peptide Conc 50 μg/ml
  Effects of Peptide Compounds on Pseudomonas aeruginosa ATCC ® 27853 ™: 100.0
[3]; Peptide Conc 100 μg/ml
  Effects of Peptide Compounds on Pseudomonas aeruginosa ATCC ® 27853 ™: 100.0
[3]; Peptide Conc 200 μg/ml
  Effects of Peptide Compounds on Pseudomonas aeruginosa ATCC ® 27853 ™: 100.0
[3]; Peptide Conc 400 μg/ml
  Effects of Peptide Compounds on Pseudomonas aeruginosa ATCC ® 27853 ™: 100.0
[4]; Peptide Conc 25 μg/ml
  Effects of Peptide Compounds on Escherichia coli ATCC ® 25922 ™: 38.0
[4]; Peptide Conc 400 μg/ml
  Effects of Peptide Compounds on Escherichia coli ATCC ® 25922 ™: 82.0

B1: HB-EGF: heparin binding-epidermal growth factor, used as the positive control (protein, UniProt Q99075 63-148, looked up)
Heparin-binding EGF-like …: DLQEADLDLLRVTLSSKPQALATPNKEEHGKRKKKGKGLGKKRDPCLRKYKDFCIHGECKYVKELRAPSCICHPGYHGERCHGLSL
[2]
  HCEC migration versus buffer control: significant increase in migration
[5]
  corneal wound healing versus vehicle: significantly higher
HCEC monolayers
  time to complete closure of scratched monolayers: ≤ 24 h
HCEC monolayers; at 18 hours
  percentage wound closure in vitro: ~88%
